Source: PubChem BioAssay AID1259246 (Broad Institute, 2017)
Records with an inconclusive call do not appear. Calls of active or inactive are those of the source.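 Rule for the calls: active = valid dose-response fit whose half-maximal growth-inhibiting concentration is at or below a set limit above the top tested dose; inconclusive = flat fit with effect between 30 and 70%, or poor fit; inactive = half-maximal concentration above a set limit.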

Experiment: antibacterial activity against Clostridioides difficile – 10-point retest, dose response (AID 1259246)
Settings: Clostridioides difficile clinical isolate growth, OD600, 24 h; at 60 µM (top of the series)

Structure (SMILES)	activity change, negative = inhibition
COCC#Cc1ccc2c(c1)O[C@H](CN(C)Cc1ccc3c(c1)OCO3)[C@H](C)CN([C@@H](C)CO)S2(=O)=O	6.47% (inactive)
O=C(O)C[C@H]1C[C@@H]2c3cc(NC(=O)C4CCC4)ccc3O[C@@H]2[C@@H](CO)O1	-2.3% (inactive)
COc1ccc(CNC(=O)C[C@H]2C[C@@H]3c4cc(NC(=O)C5CCC5)ccc4O[C@@H]3[C@@H](CO)O2)cc1	-1.06% (inactive)
C[C@@H]1CN([C@H](C)CO)C(=O)c2cc(C#CCc3ccccc3)cnc2O[C@H]1CN(C)CC1CCCC1	19.2% (inactive)

Same assay, conditions: Clostridioides difficile clinical isolate growth, OD600, 24 h; at 68 µM (top of the series)

Structure (SMILES)	activity change, negative = inhibition
O=C(C[C@H]1C[C@@H]2c3cc(NS(=O)(=O)c4ccc(F)cc4)ccc3O[C@@H]2[C@@H](CO)O1)NCc1ccc(Cl)cc1	8.4% (inactive)

Same assay, conditions: Clostridioides difficile clinical isolate growth, OD600, 24 h; at 120 µM (top of the series)

Structure (SMILES)	activity change, negative = inhibition
C[C@@H]1CN([C@H](C)CO)C(=O)c2cccc(NC(=O)Nc3ccc(C(F)(F)F)cc3)c2O[C@H]1CN(C)Cc1ccncc1	56.1% (inactive)
C[C@H](CO)N1C[C@H](C)[C@H](CN(C)S(=O)(=O)c2ccc(F)cc2)OCCCC[C@H](C)Oc2ccc(NC(=O)Nc3cccc4ccccc34)cc2C1=O	34.7% (inactive)
C[C@@H]1CN([C@H](C)CO)C(=O)Cc2cc(NC(=O)CCCN(C)C)ccc2O[C@H]1CN(C)Cc1ccc(Oc2ccccc2)cc1	17.1% (inactive)
C[C@@H]1CN([C@@H](C)CO)C(=O)Cc2cc(N(C)C)ccc2O[C@@H]1CN(C)Cc1ccc(Oc2ccccc2)cc1	12.4% (inactive)
C[C@@H]1CN([C@H](C)CO)C(=O)c2cccc(NC(=O)Nc3ccccc3)c2O[C@H]1CN(C)Cc1ccc(Oc2ccccc2)cc1	17.8% (inactive)
C[C@H]1CN([C@@H](C)CO)C(=O)c2cccc(NC(=O)Nc3ccc(C(F)(F)F)cc3)c2O[C@@H]1CN(C)C(=O)NC1CCCCC1	19.5% (inactive)
Cc1noc(C)c1NC(=O)Nc1cccc2c1O[C@H](CN(C)Cc1ccc(Cl)c(Cl)c1)[C@H](C)CN([C@@H](C)CO)C2=O	28.7% (inactive)
CNC[C@@H]1Oc2cc(C#CCC(C)C)ccc2S(=O)(=O)N([C@@H](C)CO)C[C@H]1C	21.5% (inactive)
C[C@H](CO)N1C[C@H](C)[C@@H](CN(C)S(=O)(=O)c2ccc(F)cc2)OCCCC[C@H](C)Oc2ccc(NC(=O)Nc3cccc4ccccc34)cc2C1=O	16.3% (inactive)
COc1ccc(NC(=O)Nc2cccc3c2O[C@H](CN(C)Cc2ccc(Oc4ccccc4)cc2)[C@H](C)CN([C@H](C)CO)C3=O)cc1	-0.653% (inactive)
CO[C@H]1CN(C)C(=O)c2cc(NC(=O)c3nc4ccccc4s3)ccc2OC[C@@H](C)N(Cc2ccncc2)C[C@H]1C	5.99% (inactive)
C[C@@H]1CN([C@@H](C)CO)C(=O)c2cccc(NC(=O)Nc3ccc4c(c3)OCO4)c2O[C@@H]1CN(C)C(=O)Nc1cccc2ccccc12	6.09% (inactive)
COc1ccc(-c2ccc([C@H]3[C@H](C#N)N(C(=O)C4CCCC4)[C@H]3CO)cc2)cc1	5.91% (inactive)
COc1ccc(S(=O)(=O)N(C)C[C@H]2Oc3c(NS(=O)(=O)c4ccccc4)cccc3C(=O)N([C@H](C)CO)C[C@@H]2C)cc1	28% (inactive)
C[C@@H]1CN([C@@H](C)CO)S(=O)(=O)c2ccc(C#CC3CCCCC3)cc2O[C@@H]1CN(C)Cc1cccnc1	13.1% (inactive)
C[C@H](CO)N1C[C@H](C)[C@@H](CN(C)C(=O)Nc2ccc(F)cc2)OCCCC[C@H](C)Oc2ccc(NC(=O)Nc3cccc4ccccc34)cc2C1=O	40.4% (inactive)
C[C@@H]1CN([C@H](C)CO)C(=O)Cc2cc(NC(=O)CCCN(C)C)ccc2O[C@@H]1CN(C)Cc1ccc(Oc2ccccc2)cc1	22.2% (inactive)
Cc1ccc(S(=O)(=O)N[C@H]2CC[C@H](CCNC(=O)c3ccc4c(c3)OCO4)O[C@H]2CO)cc1	-3.6% (inactive)
CC(C)CC#Cc1ccc2c(c1)O[C@@H](CN(C)CC1CCOCC1)[C@H](C)CN([C@@H](C)CO)S2(=O)=O	13.6% (inactive)
CNC[C@H]1Oc2cc(C#CCC(C)C)ccc2S(=O)(=O)N([C@H](C)CO)C[C@@H]1C	19.7% (inactive)
C[C@@H]1CN([C@H](C)CO)S(=O)(=O)c2ccc(C#CC3CCCC3)cc2O[C@H]1CN(C)C	4.79% (inactive)
C[C@@H]1CN([C@@H](C)CO)C(=O)Cc2cc(NC(=O)c3ccncc3)ccc2O[C@@H]1CN(C)S(=O)(=O)c1cn(C)cn1	37.2% (inactive)
C[C@@H]1CN([C@H](C)CO)C(=O)Cc2cc(N(C)C)ccc2O[C@@H]1CN(C)Cc1ccc(-c2ccccc2)cc1	22.5% (inactive)
C[C@@H]1CN([C@@H](C)CO)C(=O)c2cccc(NC(=O)Nc3ccc(C(F)(F)F)cc3)c2O[C@H]1CN(C)Cc1ccc(-c2ccccc2)cc1	20.3% (inactive)
C/C=C/c1ccc2c(c1)O[C@H](CN(C)CC1CCOCC1)[C@H](C)CN([C@H](C)CO)S2(=O)=O	-5.69% (inactive)
Cc1ccc(S(=O)(=O)N[C@@H]2CC[C@@H](CCNS(=O)(=O)Cc3ccccc3)O[C@@H]2CO)cc1	-1.17% (inactive)
C[C@@H]1CN([C@@H](C)CO)S(=O)(=O)c2ccc(C#CC3CCCC3)cc2O[C@H]1CN(C)Cc1cccnc1	23.5% (inactive)
CO[C@@H]1CN(C)C(=O)c2ccc(NC(=O)c3ccc(-c4ccccc4)cc3)cc2OC[C@H](C)NC[C@H]1C	8.57% (inactive)
C[C@@H]1CN([C@H](C)CO)C(=O)c2cccc(NC(=O)Nc3ccc4c(c3)OCO4)c2O[C@H]1CN(C)Cc1ccc(-c2ccccc2)cc1	6.58% (inactive)
C[C@@H]1CN([C@@H](C)CO)C(=O)Cc2cc(NC(=O)CCC(F)(F)F)ccc2O[C@H]1CN(C)Cc1ccc(-c2ccccc2)cc1	37.3% (inactive)

Same assay, conditions: Clostridioides difficile clinical isolate growth, OD600, 24 h; at 135 µM (top of the series)

Structure (SMILES)	activity change, negative = inhibition
COc1ccccc1CNC(=O)C[C@H]1C[C@@H]2c3cc(NC(=O)NC4CCCC4)ccc3O[C@@H]2[C@H](CO)O1	4.13% (inactive)
CO[C@@H]1CN(C)C(=O)c2cc(NC(=O)c3ccc(Oc4ccccc4)cc3)ccc2OC[C@H](C)NC[C@H]1C	24.9% (inactive)
CO[C@@H]1CN(C)C(=O)c2cc(NC(=O)c3nc4ccccc4s3)ccc2OC[C@H](C)N(Cc2ccncc2)C[C@H]1C	7% (inactive)
C[C@@H]1CN([C@@H](C)CO)C(=O)Cc2cc(NC(=O)CCCN(C)C)ccc2O[C@@H]1CN(C)Cc1ccc(Oc2ccccc2)cc1	18% (inactive)
C[C@@H]1CN([C@@H](C)CO)C(=O)Cc2cc(NC(=O)CCC(F)(F)F)ccc2O[C@H]1CN(C)Cc1ccc(Oc2ccccc2)cc1	8.79% (inactive)
C[C@H]1CN([C@@H](C)CO)C(=O)c2cccc(NC(=O)Nc3ccc4c(c3)OCO4)c2O[C@H]1CN(C)Cc1ccc(-c2ccccc2)cc1	24.8% (inactive)
CNC[C@H]1Oc2c(NC(=O)Nc3ccc(F)cc3)cccc2C(=O)N([C@H](C)CO)C[C@@H]1C	0.222% (inactive)
CO[C@H]1CN(C)C(=O)c2cc(NC(=O)c3nc4ccccc4s3)ccc2OC[C@H](C)NC[C@H]1C	-0.247% (inactive)
